Measurements from patent US20220193241A1, “AGENT TARGETING DOUBLE-MEMBRANE ORGANELLE DNA” (CHIBA-PREFECTURE, priority 2019, published 2022).

Assays:
Type in all cases: cell-based
[1] = tested on: A549 cells; assay: MTT cell proliferation assay
Protocol: (§1) The A549 cells and the PC14 cells were inoculated at 5×10^3 cells/dish and 1×10^4 cells/dish, respectively, to 35 mm glass base dishes (IWAKI, Japan), cultured for 24 hours, and then treated with CCC021-TPP (final concentration: 20 μM). Further, 24 hours later, the culture solution was discarded, and a DMEM culture solution containing Mito Tracker(R) Red CMXRos (Life Technologies, USA) was added to attain 100 nM. 30 minutes later, the cells were washed twice with PBS, then fixed in 4% PFA for 30 minutes, then medium-replaced with PBS, preserved at 4° C., immunostained with the antibody by the method described in Example 1, and observed under confocal laser microscope SP8 (Leica, Germany). […] A549 and PC14 were each inoculated at 5×10^2 cells/well to 16 wells of a 96-well plate, cultured for 24 hours, and then treated with CCC021-TPP at 0, 1, 2, 5, 10, 25, and 50 μM each for 2 wells. 5 days later, the cells were reacted at room temperature for 2 hours using CytoSelect™ MTT Cell Proliferation Assay (Cosmo Bio Co., Ltd.), followed by the measurement of absorbance at 590 nm with SPECTRAFLUOR Plus (Tecan Group Ltd.) to conduct a rechallenge experiment of cell proliferation. […] 7 days later, as for change in the live cell numbers of the A549 cells and the PC14 cells, the live cell numbers were measured by trypan blue staining to experimentally examine cell survival rates.

[2] = tested on: PC14 cells; assay: MTT cell proliferation assay; settings: PC14, 5 days
Protocol: as §1

[3] = tested on: A549 cells; assay: Trypan blue assay of live cell numbers; settings: A549, 7 days later
Protocol: as §1

[4] = tested on: PC14 cells; assay: Trypan blue assay of live cell numbers; settings: PC14, 7 days later
Protocol: as §1

[5] = tested on: A549 cells; assay: Expression of inflammatory cytokines (SASP) by RT-qPCR; settings: 5 days after treatment
Protocol: The expression of inflammation-related genes such as inflammatory cytokine genes is increased in senescent cells. It is known that a phenomenon called SASP (senescence-associated secretory phenotype) is thereby induced. In order to study whether this phenomenon was induced in the A549 cells, the cells were recovered 5 days after CCC021-TPP treatment in the same manner as in Example 1, and RNA extraction, RNA reverse-transcription, cDNA synthesis, and RT-qPCR were performed in the same manner as in Example 1 to examine the expression of inflammatory cytokines (IL-1A, IL-1B, IL-6, and IL-8) in the A549 cells and the PC14 cells. The primers used for the amplification of each gene are shown below. For qPCR, amplification was performed under conditions involving a holding stage of 50° C. for 2 min→95° C. for 10 min followed by 40 cycles of a cycling stage each involving 95° C. for 15 sec→60° C. for 1 min using Applied Biosystems(R) 7500 real-time PCR system, and melt curve analysis after amplification was conducted at a melt curve stage of 95° C. for 15 sec→60° C. for 1 min→95° C. for 15 sec→60° C. for 15 sec to confirm reaction specificity from the absence of primer dimer by-products or the like in PCR products.

[6] = tested on: A549 cells; assay: GFP-LC3 transfection and Mito Tracker Red fluorescence observation; settings: 20 μM, 4 days
Protocol: 5×10^4 cells were inoculated and cultured for 24 hours. Then, 500 μL of OptiMEM, 10 μg of vector DNA (7.5 μL of P3000 reagent), and 20 μL of Lipofectamine(R) 3000 (Thermo Fisher Scientific) were added to the cells, which were then left at room temperature for 5 minutes for transfection and cultured for 24 hours. Then, 1000 subcultured cells were inoculated, cultured with 20 μM CCC021-TPP for 4 days, and then confirmed by fluorescence observation with Mito Tracker Red.

[7] = tested on: A549 cells; assay: Synthetic lethality: cell morphology with CCC021-TPP and ABT-199 or A1155463; settings: 4 days
Protocol: It was confirmed with the BCL2- and BCL-XL-specific inhibitor that the suppression of cell death in the cellular senescence of the A549 cells was presumably due to the BCL pathway. The type of BCL pathway inhibition, combined use of which could induce cell death (apoptosis) in the senescent cells of the A549 cells was studied. Five hundred A549 cells were inoculated to a 96-well plate and cultured for 24 hours. Then, change in cell morphology was photographed under an optical microscope either without administration (i.e., after DMSO treatment) or 4 days after treatment with 20 μM CCC021-TPP and 10 μM BCL2 inhibitor ABT-199 (compound venetoclax of No. 33 in FIG. 55-10) or 10 μM BCL-XL inhibitor A1155463 (compound of No. 16 in FIG. 55-6) each alone, or treatment by combined use of the same concentration of CCC021-TPP with the same concentration of ABT-199 or A1155463.

CN(C)CCCNC(=O)CCNC(=O)c1cc(NC(=O)c2cc(NC(=O)CCNC(=O)c3nc(NC(=O)c4cc(NC(=O)c5cc(NC(=O)CCNC(=O)CCCC[P+](c6ccccc6)(c6ccccc6)c6ccccc6)cn5C)cn4C)cn3C)cn2C)cn1C [CCC021-TPP]
cell morphology after administration ([1]; A549): senescent morphology
IC50 ([1]; Homo sapiens, 120 h, A549, 5 days): 7.97 µM
IC50 (MTT assay) [2]: incalculable
viability (trypan blue) [3]: no influence on the viability
viability (trypan blue) [4]: no influence on the viability
expression of IL-1A [5]: significantly increased expression
expression of IL-6 [5]: tendency to increase the expression
expression of IL-8 [5]: significantly increased expression
localization of GFP-LC3 on mitochondria [6]: colocalized with red fluorescence from Mito Tracker Red
cell death (morphology) ([7]; 20 μM CCC021-TPP and 10 μM A1155463 used concurrently): markedly increased numbers of cells that underwent apoptosis
cell death (morphology) ([7]; single administration: 20 μM CCC021-TPP, 10 μM ABT-199, 10 μM A1155463): Any finding indicating cell death was not obtained
